Laboratory results: patent publication US10005774B2, “Syk inhibitors” (Gilead Sciences, Inc., priority 2013, dated 2018)

Each compound was assayed against Syk (Homo sapiens, UniProt P43405) (assay: High Throughput Syk Biochemical Assay (KinEASE TR-FRET)). Conditions: TABLE D, 20 μM ATP, 1 μM biotinylated peptide, 0.015 nM Syk, 30 min at room temperature, read-out: IC50.
Procedure, shortened: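 Two-step endpoint TR-FRET (KinEASE) measured Syk phosphorylation of an XL665-labelled peptide, detected with europium anti-phosphotyrosine antibody. Compounds were serially diluted in DMSO.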
With C[C@@H](Oc1nc(-c2ccc3c(cnn3C)c2)cc2ncn(C)c12)[C@H]1CNC(=O)C1 [(R)-4-((R)-1-((3-methyl-6-(1-methyl-1H-indazol-5-yl)-3H-imidazo[4,5-c]pyridin-4-yl)oxy)ethyl)pyrrolidin-2-one] the IC50 was 9.62 nM. With C[C@@H](Oc1nc(-c2ccc3cnn(C)c3c2)cc2ncn(C)c12)[C@H]1CNC(=O)C1 [(R)-4-((R)-1-((3-methyl-6-(1-methyl-1H-indazol-6-yl)-3H-imidazo[4,5-c]pyridin-4-yl)oxy)ethyl)pyrrolidin-2-one] the IC50 was 16.8 nM. Compound Cc1nc2cc(-c3cc4ncn(C)c4c(O[C@H](C)[C@H]4CNC(=O)C4)n3)ccc2s1 [(R)-4-((R)-1-((3-methyl-6-(2-methylbenzo[d]thiazol-5-yl)-3H-imidazo[4,5-c]pyridin-4-yl)oxy)ethyl)pyrrolidin-2-one] has an IC50 of 12.4 nM. Cc1cnn2cc(-c3ccc(N4CCOCC4)cc3)nc(O[C@H](C)[C@H]3CNC(=O)C3)c12 [(R)-4-((R)-1-((3-methyl-6-(4-morpholinophenyl)pyrazolo[1,5-a]pyrazin-4-yl)oxy)ethyl)pyrrolidin-2-one] was tested, and the IC50 was 0.377 nM. C[C@@H](Oc1cc(-c2cnn(C(C)(C)C)c2)cc2ncn(C)c12)[C@H]1CNC(=O)C1 [(R)-4-((R)-1-((5-(1-(tert-butyl)-1H-pyrazol-4-yl)-1-methyl-1H-benzo[d]imidazol-7-yl)oxy)ethyl)pyrrolidin-2-one] showed an IC50 of 5.35 nM. Work on CCn1ccc(-c2cc(O[C@H](C)[C@H]3CNC(=O)C3)c3scnc3c2)n1 [(R)-4-((R)-1-((5-(1-ethyl-1H-pyrazol-3-yl)benzo[d]thiazol-7-yl)oxy)ethyl)pyrrolidin-2-one] yielded an IC50 of 3.36 nM. COc1ccc(-c2cc(O[C@H](C)[C@H]3CNC(=O)C3)c3c(c2)ncn3C)cc1OC [(R)-4-((R)-1-((5-(3,4-dimethoxyphenyl)-1-methyl-1H-benzo[d]imidazol-7-yl)oxy)ethyl)pyrrolidin-2-one] showed an IC50 of 38.2 nM. In the case of COc1ccc(-c2cc(O[C@H](C)[C@H]3CNC(=O)C3)c3sc(C)nc3c2)cc1OC [(R)-4-((R)-1-((5-(3,4-dimethoxyphenyl)-2-methylbenzo[d]thiazol-7-yl)oxy)ethyl)pyrrolidin-2-one], the IC50 is reported as 70 nM. For COc1cccc(-c2cc(O[C@H](C)[C@H]3CNC(=O)C3)c3c(c2)ncn3C)n1 [(R)-4-((R)-1-((5-(6-methoxypyridin-2-yl)-1-methyl-1H-benzo[d]imidazol-7-yl)oxy)ethyl)pyrrolidin-2-one], the IC50 was 45.7 nM. Cc1nn(C)c2ccc(-c3cc4ncn(C)c4c(O[C@H](C)[C@H]4CNC(=O)C4)n3)cc12 [(R)-4-((R)-1-((6-(1,3-dimethyl-1H-indazol-5-yl)-3-methyl-3H-imidazo[4,5-c]pyridin-4-yl)oxy)ethyl)pyrrolidin-2-one] gave an IC50 of 10.5 nM. With C[C@@H](Oc1cc(-c2cnn(CC(F)F)c2)cn2nccc12)[C@H]1CNC(=O)C1 [(R)-4-((R)-1-((6-(1-(2,2-difluoroethyl)-1H-pyrazol-4-yl)pyrazolo[1,5-a]pyridin-4-yl)oxy)ethyl)pyrrolidin-2-one] the IC50 was 10.2 nM. C[C@@H](Oc1cc(-c2cnn(C(C)(C)C)c2)cn2ncc(Cl)c12)[C@H]1CNC(=O)C1 [(R)-4-((R)-1-((6-(1-(tert-butyl)-1H-pyrazol-4-yl)-3-chloropyrazolo[1,5-a]pyridin-4-yl)oxy)ethyl)pyrrolidin-2-one] showed an IC50 of 0.271 nM. For COc1cc(-c2cc(O[C@H](C)[C@H]3CNC(=O)C3)c3ccnn3c2)cc(OC)c1OC [(R)-4-((R)-1-((6-(3,4,5-trimethoxyphenyl)pyrazolo[1,5-a]pyridin-4-yl)oxy)ethyl)pyrrolidin-2-one], the IC50 was 85.1 nM. In the case of COc1ccc(-c2cn3nc(C)cc3c(O[C@H](C)[C@H]3CNC(=O)C3)n2)cc1OC [(R)-4-((R)-1-((6-(3,4-dimethoxyphenyl)-2-methylpyrazolo[1,5-a]pyrazin-4-yl)oxy)ethyl)pyrrolidin-2-one], the IC50 is reported as 31.4 nM. COc1ccc(-c2cc(O[C@H](C)[C@H]3CNC(=O)C3)c3c(C)cnn3c2C)cc1OC [(R)-4-((R)-1-((6-(3,4-dimethoxyphenyl)-3,7-dimethylpyrazolo[1,5-a]pyridin-4-yl)oxy)ethyl)pyrrolidin-2-one] showed an IC50 of 53.7 nM. In the case of COc1ccc(-c2cc(O[C@H](C)[C@H]3CNC(=O)C3)c3ccnn3c2)cc1OC [(R)-4-((R)-1-((6-(3,4-dimethoxyphenyl)pyrazolo[1,5-a]pyridin-4-yl)oxy)ethyl)pyrrolidin-2-one], the IC50 is reported as 39.1 nM. Work on C[C@@H](Oc1cc(-c2ccc(N3CCOCC3)cc2)cn2nccc12)[C@H]1CNC(=O)C1 [(R)-4-((R)-1-((6-(4-morpholinophenyl)pyrazolo[1,5-a]pyridin-4-yl)oxy)ethyl)pyrrolidin-2-one] yielded an IC50 of 7.85 nM. In the case of COc1ccc(-c2cc(O[C@H](C)[C@H]3CNC(=O)C3)c3ccnn3c2)nc1OC [(R)-4-((R)-1-((6-(5,6-dimethoxypyridin-2-yl)pyrazolo[1,5-a]pyridin-4-yl)oxy)ethyl)pyrrolidin-2-one], the IC50 is reported as 4.84 nM. In the case of C[C@@H](Oc1nc(-c2ccc3scnc3c2)cc2ncn(C)c12)[C@H]1CNC(=O)C1 [(R)-4-((R)-1-((6-(benzo[d]thiazol-5-yl)-3-methyl-3H-imidazo[4,5-c]pyridin-4-yl)oxy)ethyl)pyrrolidin-2-one], the IC50 is reported as 30.6 nM. C[C@@H](Oc1cc(-c2cccc3scnc23)cc2ncsc12)[C@H]1CNC(=O)C1 [(R)-4-((R)-1-([4,5′-bibenzo[d]thiazol]-7′-yloxy)ethyl)pyrrolidin-2-one] was tested, and the IC50 was 105 nM. Cn1cnc2cc(-c3cnn(C(C)(C)C)c3)nc(O[C@H](CF)[C@H]3CNC(=O)C3)c21 [(R)-4-((S)-1-(6-(1-tert-butyl-1H-pyrazol-4-yl)-3-methyl-3H-imidazo[4,5-c]pyridin-4-yloxy)-2-fluoroethyl)pyrrolidin-2-one] was tested, and the IC50 was 20.1 nM. COC[C@@H](Oc1nc(-c2cnn(C(C)(C)C)c2)cc2ncn(C)c12)[C@H]1CNC(=O)C1 [(R)-4-((S)-1-(6-(1-tert-butyl-1H-pyrazol-4-yl)-3-methyl-3H-imidazo[4,5-c]pyridin-4-yloxy)-2-methoxyethyl)pyrrolidin-2-one] gave an IC50 of 186 nM.

Same assay, conditions: table 'ALL NEW COMPOUNDS IN 2014', 20 μM ATP, 1 μM biotinylated peptide, 0.015 nM Syk, 30 min at room temperature, read-out: Syk IC50
For C[C@@H](Oc1nc(-c2cnc(N3CCN(C4COC4)CC3)c(F)c2)cc2ncn(C3CC3)c12)[C@H]1CNC(=O)C1 [(R)-4-((R)-1-((3-cyclopropyl-6-(5-fluoro-6-(4-(oxetan-3-yl)piperazin-1-yl)pyridin-3-yl)-3H-imidazo[4,5-c]pyridin-4-yl)oxy)ethyl)pyrrolidin-2-one], the IC50 was 17.2 nM. Work on Cc1ccc(-c2cc3ncn(C4CC4)c3c(O[C@H](C)[C@H]3CNC(=O)C3)n2)s1 [(R)-4-((R)-1-((3-cyclopropyl-6-(5-methylthiophen-2-yl)-3H-imidazo[4,5-c]pyridin-4-yl)oxy)ethyl)pyrrolidin-2-one] yielded an IC50 of 7.43 nM. In the case of C[C@@H](Oc1nc(-c2ccc(N3CCN(C4COC4)CC3)nc2)cc2ncn(C3CC3)c12)[C@H]1CNC(=O)C1 [(R)-4-((R)-1-((3-cyclopropyl-6-(6-(4-(oxetan-3-yl)piperazin-1-yl)pyridin-3-yl)-3H-imidazo[4,5-c]pyridin-4-yl)oxy)ethyl)pyrrolidin-2-one], the IC50 is reported as 3.63 nM. C[C@@H](Oc1nc(-c2ccncc2)cc2ncn(C3CC3)c12)[C@H]1CNC(=O)C1 [(R)-4-((R)-1-((3-cyclopropyl-6-(pyridin-4-yl)-3H-imidazo[4,5-c]pyridin-4-yl)oxy)ethyl)pyrrolidin-2-one] gave an IC50 of 11.9 nM. C[C@@H](Oc1nc(-c2ccc(N3CCN(C4COC4)CC3)nc2)cc2ncn(C)c12)[C@H]1CNC(=O)C1 [(R)-4-((R)-1-((3-methyl-6-(6-(4-(oxetan-3-yl)piperazin-1-yl)pyridin-3-yl)-3H-imidazo[4,5-c]pyridin-4-yl)oxy)ethyl)pyrrolidin-2-one] gave an IC50 of 12.4 nM. For C[C@@H](Oc1cc(-c2ccn(C(C)(C)C)n2)cc2ncn(C3CC3)c12)[C@H]1CNC(=O)C1 [(R)-4-((R)-1-((5-(1-(tert-butyl)-1H-pyrazol-3-yl)-1-cyclopropyl-1H-benzo[d]imidazol-7-yl)oxy)ethyl)pyrrolidin-2-one], the IC50 was 5.01 nM. Compound C[C@@H](Oc1cc(-c2cnn(C(C)(C)C)c2)cc2ncn(C3CC3)c12)[C@H]1CNC(=O)C1 [(R)-4-((R)-1-((5-(1-(tert-butyl)-1H-pyrazol-4-yl)-1-cyclopropyl-1H-benzo[d]imidazol-7-yl)oxy)ethyl)pyrrolidin-2-one] has an IC50 of 0.454 nM. In the case of C[C@@H](Oc1cc(-c2nc(C(C)(C)C)cs2)cc2ncn(C3CC3)c12)[C@H]1CNC(=O)C1 [(R)-4-((R)-1-((5-(4-(tert-butyl)thiazol-2-yl)-1-cyclopropyl-1H-benzo[d]imidazol-7-yl)oxy)ethyl)pyrrolidin-2-one], the IC50 is reported as 0.442 nM. Compound C[C@@H](Oc1cc(-c2cccc(N)n2)cc2ncn(C3CC3)c12)[C@H]1CNC(=O)C1 [(R)-4-((R)-1-((5-(6-aminopyridin-2-yl)-1-cyclopropyl-1H-benzo[d]imidazol-7-yl)oxy)ethyl)pyrrolidin-2-one] has an IC50 of 8.43 nM. Work on C[C@@H](Oc1nc(-c2ccnc(C3C=NN=C3)c2)cc2ncn(C3CC3)c12)[C@H]1CNC(=O)C1 [(R)-4-((R)-1-((6-(2-(1H-pyrazol-4-yl)pyridin-4-yl)-3-cyclopropyl-3H-imidazo[4,5-c]pyridin-4-yl)oxy)ethyl)pyrrolidin-2-one] yielded an IC50 of 8.44 nM. Work on C[C@@H](Oc1nc(-c2cnc(C(C)(C)C)s2)cc2ncn(C3CC3)c12)[C@H]1CNC(=O)C1 [(R)-4-((R)-1-((6-(2-(tert-butyl)thiazol-5-yl)-3-cyclopropyl-3H-imidazo[4,5-c]pyridin-4-yl)oxy)ethyl)pyrrolidin-2-one] yielded an IC50 of 2.1 nM. C[C@@H](Oc1nc(-c2ccc(N3CCN(C4COC4)CC3)c(Cl)c2)cc2ncn(C3CC3)c12)[C@H]1CNC(=O)C1 [(R)-4-((R)-1-((6-(3-chloro-4-(4-(oxetan-3-yl)piperazin-1-yl)phenyl)-3-cyclopropyl-3H-imidazo[4,5-c]pyridin-4-yl)oxy)ethyl)pyrrolidin-2-one] gave an IC50 of 2.76 nM.
